From patent US20130129675A1, “INTERFERON THERAPIES IN COMBINATION WITH BLOCKADE OF STAT3 ACTIVATION” (BOARD OF REGENTS, THE UNIVERSITY OF TEXAS SYSTEM, priority 2009, published 2013)

What was measured:
[1] = tested on: STAT3 in HH, HuT78 and MJ CTCL lines; test: STAT3 tyrosine 705 phosphorylation in CTCL lines; format: cell-based, human; conditions: serum starved 18 hours, stimuli 30 minutes (FIG. 7)
Experimental: To determine whether IFN alpha and beta were able to selectively phosphorylate STAT3 in other cell types. Studies were conducted in a range of other biologically relevant cell types. In these experiments, cells were grown in media supplemented with 10% FBS, and then serum starved for 18 hours and exposed to various stimuli for 30 minutes.

[2] = cited from earlier work
melanoma = conditions: cited from earlier work
[3] = tested on: STAT3 and Jak2 phosphorylation in SUP-T1 lymphoma cell line; test: Cytokine signalling in SUP-T1 lymphoma cell line; format: cell-based; conditions: SUP-T1 lymphoma cell line (data not shown)
[4] = tested on: p-STAT3 (Tyr705) in splenocytes; test: p-STAT3 immunoblotting in splenocytes; format: cell-based, C57BL/6J mice; conditions: 2 hours, 5 and 10 μM (FIG. 3B)
Experimental: (§1) Immunoblotting analysis. Murine melanoma B16 cells and splenocytes were used for protein isolation and immunoblotting analysis as described below. B16 cells were seeded at a density of 2×10^6 cells/well in 6-well culture plates and incubated at 37° C., in an atmosphere containing 5% CO2, with the RPMI 1640 medium overnight. Afterward, B16 cells were cultured in the absence or presence of WP1193 (5 μM, 10 μM). After 3.5 hours, the B16 cells were further cultured in the absence or presence of 20 ng/ml of IFN-α for 30 minutes. For the splenocyte preparation, spleens from two 4- to 6-week-old female mice were harvested and disassociated into a single cell suspension. […] The supernatants were collected and quantified for protein content. […]
(§2) Autoradiography of the membranes was performed using Amersham ECL Western blotting detection reagents (Amersham Biosciences). The densities of the protein bands compared with the β-actin protein control were measured with the Image J program provided by the NIH.
(§3) In this experiment, B16 cells and splenocytes isolated from C57BL/6J mice and were incubated with either the medium, medium supplemented with titrated WP1193, medium supplemented with IFN-α, or medium supplemented with both IFN-α and WP1193. […] Semi-quantitative densitometry was used to determine the relative levels of p-STAT3 to STAT3 and β-actin.

[5] = tested on: p-STAT3 (Tyr705) in B16 cells; test: p-STAT3 immunoblotting in B16 cells; format: cell-based, murine; conditions: 4 hours, 5 and 10 μM (FIG. 3A)
Experimental: as §1, §2, §3

IFN-α
tyrosine phosphorylation of STAT3 (tyrosine 705) [1]: selectively stimulates tyrosine phosphorylation of STAT3
duration of sustained in vivo expression ([2]; after administration of plasmid): more than 30 days
serum level of IFN-α ([2]; single i.v. hydrodynamic injection of 3 μg pORF plasmid encoding murine IFN-α): 0.9 ng/mL
reduction in the relative relapse risk (melanoma; high-dose type I IFN-α, stage II and III melanoma, adjuvant trials): 25-33%
melanoma patients with an objective response (melanoma; human, in vivo): 15%
STAT3 and Jak2 phosphorylation [3]: potently induce STAT3 but not Jak2 phosphorylation

N#C/C(=C\c1cccc(Br)n1)C(=O)N[C@H](c1ccccc1)C1CC1 [WP1193, (S,E)-3-(6-bromopyridin-2-yl)-2-cyano-N-(cyclopropyl(phenyl)methyl)acrylamide]
phosphorylation of p-STAT3 [4]: inhibits the phosphorylation of p-STAT3
phosphorylation of p-STAT3 [5]: inhibits the phosphorylation of p-STAT3
